According to patent publication US20220265817A1, “THERAPEUTIC COMPOSITIONS AND METHODS FOR TREATING HEPATITIS B” (priority 2017, published 2022):
pEC50: −log10 of the molar value. Where two headings read alike, the source gives them in different places.

Columns and labels:
Assay in all cases: microbe, parasite or virus in culture
Type in all cases: cell-based
Conditions in all cases: Hepatitis B virus, Hepatocyte
[1] = system: D type HBV in primary human hepatocytes
Method: (§1) The mouse liver perfusion was applied to isolate PHHs. The isolated hepatocytes were further purified by Percoll. The cells were resuspended with culture media and seeded into the 96-well plates (6×10^4 cell/well) or 48-well plates (1.2×10^5 cell/well). The PHHs were infected with a D type HBV one day post seeding (day 1).
(§2) On day 2, the test compounds were diluted and added into the cell culture plates. The culture media containing the compounds were refreshed every other day. The cell culture supernatants were collected on day 8 for the HBV DNA and antigen determinations.
(§3) The compounds were tested at 7 concentrations, 3-fold dilution, in triplicate.
(§4) Two compounds were tested at 5×5 matrix, in triplicate plates.
DNA in the culture supernatants harvested on days 8 were isolated with QIAamp 96 DNA Blood Kit (Qiagen-51161). For each sample, 100 μl of the culture supernatants was used to extract DNA. The DNA was eluted with 100 μl, 150 μl or 180 μl of AE. HBV DNA in the culture supernatants was quantified by qPCR. The combination effect was analyzed by the MacSynergy software. The primers are described below.

[2] = system: D type HBV in primary human hepatocytes (HBsAg)
Method: as §1, §2, §3, §4
(§5) HBsAg/HBeAg in the culture supernatants harvested on days 8 were measured by the HBsAg/HBeAg ELISA kit (Autobio) according to the manual. The samples were diluted with PBS to get the signal in the range of the standard curve. The inhibition rates were calculated with the formula below. The combination effect was analyzed by the MacSynergy software.
% Inh. HBsAg=[1-HBsAg quantity of sample/HBV quantity of DMSO control]×100.

[3] = system: D type HBV in primary human hepatocytes (HBeAg)
Method: as §1, §2, §3, §4, §5
% Inh. HBeAg=[1-HBeAg quantity of sample/HBV quantity of DMSO control]×100.

[4] = 456 h, read-out: Inhibitor B EC50

CC[C@@H](C)NS(=O)(=O)c1ccc(F)c(C(=O)Nc2ccc(F)c(F)c2)c1 [Compound 3]
pEC50 ([1]; 456 h, HBV DNA endpoint, PHH, determined in an earlier separate experiment (Table 19d), read-out: Inhibitor B EC50): 6.06
pEC50 ([1]; 576 h, PHH, determined in an earlier separate experiment (Table 24d), read-out: Inhibitor B EC50 HBV DNA): 6.06
inhibition at 0.06173 µM ([1]; read-out: AVERAGE % […] DNA, COMPOUND 3 61.73 nM alone (Table 19a)): -28.1%
inhibition at 0.06864 µM ([1]; read-out: AVERAGE % […] DNA, COMPOUND 3 68.64 nM alone (Table 20a)): -2.79%
inhibition at 0.18519 µM ([1]; read-out: AVERAGE % […] DNA, COMPOUND 3 185.19 nM alone (Table 19a), read-out: AVERAGE % INHIBITION HBV DNA): -25.9%
inhibition at 0.20593 µM ([1]; read-out: AVERAGE % […] DNA, COMPOUND 3 205.93 nM alone (Table 20a)): -5.02%
inhibition at 0.55556 µM ([1]; read-out: AVERAGE % […] DNA, COMPOUND 3 555.56 nM alone (Table 19a), read-out: AVERAGE % INHIBITION HBV DNA): -3.32%
inhibition at 0.61778 µM ([1]; read-out: AVERAGE % […] DNA, COMPOUND 3 617.78 nM alone (Table 20a)): 34.8%
inhibition at 1.66667 µM ([1]; read-out: AVERAGE % […] DNA, COMPOUND 3 1666.67 nM alone (Table 19a)): 25.9%
inhibition at 1.85333 µM ([1]; read-out: AVERAGE % […] DNA, COMPOUND 3 1853.33 nM alone (Table 20a)): 66.4%
inhibition at 5 µM ([1]; read-out: AVERAGE % […] DNA, COMPOUND 3 5000.00 nM alone (Table 19a), read-out: AVERAGE % INHIBITION HBV DNA): 74.8%
inhibition at 5.56 µM ([1]; read-out: AVERAGE % […] DNA, COMPOUND 3 5560.00 nM alone (Table 20a)): 85.3%
inhibition at 61.73 µM ([1]; read-out: AVERAGE % […] DNA, COMPOUND 3 61.73 μM alone): -11.7%
inhibition at 185.19 µM ([1]; read-out: AVERAGE % […] DNA, COMPOUND 3 185.19 μM alone): 4.14%
inhibition at 555.56 µM ([1]; read-out: AVERAGE % […] DNA, COMPOUND 3 555.56 μM alone): 26.5%
inhibition at 1666.67 µM ([1]; read-out: AVERAGE % […] DNA, COMPOUND 3 1666.67 μM alone): 69.4%
inhibition at 5000 µM ([1]; read-out: AVERAGE % […] DNA, COMPOUND 3 5000.00 μM alone): 84.3%
pEC50 ([1]; HBV DNA, determined in an earlier separate experiment, read-out: Inhibitor EC50): 6.06
pEC50 [2, 4]: 5.11
pEC50 ([2]; 576 h, read-out: Inhibitor B EC50 HBsAg): 5.11
inhibition at 0.06173 µM ([2]; read-out: AVERAGE % INHIBITION HBsAg, COMPOUND 3 61.73 nM alone (Table 19b)): -20%
inhibition at 0.06864 µM ([2]; read-out: AVERAGE % INHIBITION HBsAg, COMPOUND 3 68.64 nM alone (Table 20b)): -16.4%
inhibition at 0.18519 µM ([2]; read-out: AVERAGE % INHIBITION HBsAg, COMPOUND 3 185.19 nM alone (Table 19b)): -17.3%
inhibition at 0.20593 µM ([2]; read-out: AVERAGE % INHIBITION HBsAg, COMPOUND 3 205.93 nM alone (Table 20b)): -21.6%
inhibition at 0.55556 µM ([2]; read-out: AVERAGE % INHIBITION HBsAg, COMPOUND 3 555.56 nM alone (Table 19b)): -14%
inhibition at 0.61778 µM ([2]; read-out: AVERAGE % INHIBITION HBsAg, COMPOUND 3 617.78 nM alone (Table 20b)): -5.12%
inhibition at 1.66667 µM ([2]; read-out: AVERAGE % INHIBITION HBsAg, COMPOUND 3 1666.67 nM alone (Table 19b)): 1.44%
inhibition at 1.85333 µM ([2]; read-out: AVERAGE % INHIBITION HBsAg, COMPOUND 3 1853.33 nM alone (Table 20b)): 14.6%
inhibition at 5 µM ([2]; read-out: AVERAGE % INHIBITION HBsAg, COMPOUND 3 5000.00 nM alone (Table 19b)): 28.2%
inhibition at 5.56 µM ([2]; read-out: AVERAGE % INHIBITION HBsAg, COMPOUND 3 5560.00 nM alone (Table 20b)): 43.8%
inhibition at 61.73 µM ([2]; read-out: AVERAGE % INHIBITION HBsAg, COMPOUND 3 61.73 μM alone): -5.49%
inhibition at 185.19 µM ([2]; read-out: AVERAGE % INHIBITION HBsAg, COMPOUND 3 185.19 μM alone): -1.46%
inhibition at 555.56 µM ([2]; read-out: AVERAGE % INHIBITION HBsAg, COMPOUND 3 555.56 μM alone): 4.63%
pEC50 ([2]; read-out: Inhibitor EC50): 5.11
pEC50 [3, 4]: 5.05
pEC50 ([3]; 576 h, read-out: Inhibitor B EC50 HBeAg): 5.07
inhibition at 0.06173 µM ([3]; read-out: AVERAGE % INHIBITION HBeAg, COMPOUND 3 61.73 nM alone): -11.3%
inhibition at 0.18519 µM ([3]; read-out: AVERAGE % INHIBITION HBeAg, COMPOUND 3 185.19 nM alone): -16%
inhibition at 0.55556 µM ([3]; read-out: AVERAGE % INHIBITION HBeAg, COMPOUND 3 555.56 nM alone): -5.39%
inhibition at 1.66667 µM ([3]; read-out: AVERAGE % INHIBITION HBeAg, COMPOUND 3 1666.67 nM alone): 2.34%
inhibition at 5 µM ([3]; read-out: AVERAGE % INHIBITION HBeAg, COMPOUND 3 5000.00 nM alone): 27.3%
inhibition at 61.73 µM ([3]; read-out: AVERAGE % INHIBITION HBeAg, COMPOUND 3 61.73 μM alone): -11.1%
inhibition at 185.19 µM ([3]; read-out: AVERAGE % INHIBITION HBeAg, COMPOUND 3 185.19 μM alone): -4.9%
inhibition at 555.56 µM ([3]; read-out: AVERAGE % INHIBITION HBeAg, COMPOUND 3 555.56 μM alone): -1.02%
inhibition at 0.06859 µM ([3]; read-out: AVERAGE % INHIBITION, TAF 0.00 nM, COMPOUND 3 68.59 nM): -5.05%
inhibition at 0.20576 µM ([3]; read-out: AVERAGE % INHIBITION, TAF 0.00 nM, COMPOUND 3 205.76 nM): -6.33%
inhibition at 0.61728 µM ([3]; read-out: AVERAGE % INHIBITION, TAF 0.00 nM, COMPOUND 3 617.28 nM): 2.77%
inhibition at 1.85185 µM ([3]; read-out: AVERAGE % INHIBITION, TAF 0.00 nM, COMPOUND 3 1851.85 nM): 29.7%
inhibition at 5.55556 µM ([3]; read-out: AVERAGE % INHIBITION, TAF 0.00 nM, COMPOUND 3 5555.56 nM): 40.4%
pEC50 ([3]; read-out: Inhibitor EC50): 5.05
